Laboratory results reported in ChEMBL document CHEMBL6078649, “Discovery of Chalcone Derivatives as Bifunctional Molecules with Anti-SARS-CoV-2 and Anti-inflammatory Activities” (J Nat Prod, 2024).

Key:
[1] = Cytotoxicity against human Huh-7 cells harboring viral replicon/EGFP/Neo genes assessed as cell viability at 5 uM incubated for 24 hrs by Cell Titer Glo assay relative to control; format: toxicity, cell-based; conditions: read-out: Activity
[2] = molecular target: Replicase polyprotein 1ab (Severe acute respiratory syndrome coronavirus 2) (UniProt P0DTD1); test: Inhibition of SARS-CoV-2 3CLPro using DabcylKNSTLQSGLRK-Edans as substrate at 50 uM preincubated for 30 mins followed by substrate addition measured after 20 mins by FRET assay relative to control; conditions: time 50.0 min
[3] = Cytotoxicity against mouse RAW264.7 cells assessed as cell viability at 1 uM incubated for 24 hrs by CCK8 assay relative to control; format: toxicity, cell-based; conditions: read-out: Activity
[4] = Cytotoxicity against human Huh-7 cells harboring viral replicon/EGFP/Neo genes assessed as cell viability at 50 uM incubated for 24 hrs by Cell Titer Glo assay relative to control; format: toxicity, cell-based; conditions: read-out: Activity
[5] = molecular target: Replicase polyprotein 1ab (Severe acute respiratory syndrome coronavirus 2) (UniProt P0DTD1); test: Inhibition of SARS-CoV-2 3CLPro using DabcylKNSTLQSGLRK-Edans as substrate at 5 uM preincubated for 30 mins followed by substrate addition measured after 20 mins by FRET assay relative to control; conditions: time 50.0 min
[6] = Cytotoxicity against mouse RAW264.7 cells assessed as cell viability at 10 uM incubated for 24 hrs by CCK8 assay relative to control; format: toxicity, cell-based; conditions: read-out: Activity
RAW264.7 [7] = test: Anti-inflammatory activity against mouse RAW264.7 cells assessed as inhibition of LPS-induced NO production at 1 uM preincubated for 1 hr followed by LPS treatment measured after 24 hrs relative to control; format: functional; conditions: time 25 hrs
RAW264.7 [8] = test: Anti-inflammatory activity against mouse RAW264.7 cells assessed as inhibition of LPS-induced NO production at 10 uM preincubated for 1 hr followed by LPS treatment measured after 24 hrs relative to control; format: functional; conditions: time 25 hrs
[9] = Cytotoxicity against mouse RAW264.7 cells assessed as cell viability at 50 uM incubated for 24 hrs by CCK8 assay relative to control; format: toxicity, cell-based; conditions: read-out: Activity
[10] = molecular target: Replicase polyprotein 1ab (Severe acute respiratory syndrome coronavirus 2, UniProt P0DTD1)

Compound	viability at 24 h, 5 µM [1] [%]	inhibition [2] [%]	viability at 24 h, 1 µM [3] [%]	viability at 24 h, 50 µM [4] [%]	inhibition [5] [%]	viability at 24 h, 10 µM [6] [%]	inhibition at 1 µM (RAW264.7 [7]) [%]	inhibition at 10 µM (RAW264.7 [8]) [%]	viability at 24 h, 50 µM [9] [%]	IC50 [10] [nM]	EC50 [10] [nM]
O=C(/C=C/c1c(Cl)c(O)c(O)c(O)c1Cl)c1ccc(C(F)(F)F)cc1	101	1.5	76.7	43.8	2	36.6	52	70.7	6.9	442	–
O=C(/C=C/c1c(Cl)c(O)c(O)c(O)c1Cl)c1ccc(Cl)c(Cl)c1	–	-0.3	79.8	–	-0.8	50	58.2	89.4	12.5	415	–
O=C(O)[C@H](O)Cc1ccc(O)c(O)c1	–	–	–	–	5.3	–	–	–	–	2150	> 50000
O=C(/C=C/c1c(Cl)c(O)c(O)c(O)c1Cl)c1ccc(F)cc1F	–	1.1	108	–	1.1	91.8	35.3	79	65.8	131	–
O=C(/C=C/c1c(Cl)c(O)c(O)c(O)c1Cl)c1c(Cl)cc(F)cc1Cl	–	1.1	100	–	1.3	47.2	54.1	83.2	26.3	403	–
O=C(/C=C/c1c(Cl)c(O)c(O)c(O)c1Cl)c1ccc([N+](=O)[O-])cc1	110	-0.2	115	74.7	0.6	110	2.1	70.7	77.4	276	–
O=C(/C=C/c1c(Cl)c(O)c(O)c(O)c1Cl)c1ccc(O)cc1	105	1.9	122	87.9	1.3	95.6	16.6	37.4	114	192	–
O=C(/C=C/c1c(Cl)c(O)c(O)c(O)c1Cl)c1ccc(-c2ccc(F)cc2)cc1	86.5	0.6	55.5	10.2	-0.6	33.1	39.5	89.4	11.2	1070	–
O=C(/C=C/c1c(Cl)c(O)c(O)c(O)c1Cl)c1ccco1	102	-0.7	82	70.7	-1.1	82.2	45.7	62.4	94.7	95.5	–
O=C(/C=C/c1c(Cl)c(O)c(O)c(O)c1Cl)c1ccc(Br)cc1	–	-0.3	101	–	1	75.7	5.2	68.6	12.4	794	–
O=C(/C=C/c1c(Cl)c(O)c(O)c(O)c1Cl)c1ccccc1	105	-0.3	95.5	64.2	1	66.8	14.6	39.5	96.9	143	–
O=C(O)/C=C/c1c(Cl)c(O)c(O)c(O)c1Cl	–	2.9	93.8	–	3.1	92.4	27	-14.6	82.1	840	–
Oc1cc(CCCc2ccc(F)cc2)cc(O)c1O	–	2	94	–	18	108	-45.7	-14.6	93.6	2400	–
O=C(/C=C/c1c(Cl)c(O)c(O)c(O)c1Cl)c1cccc(-c2ccc(Cl)c(Cl)c2)c1	–	–	69.1	–	79.3	29.4	16.6	70.7	4.2	> 5000	–
O=C(O)/C=C/c1c(Cl)c(O)c(O)c(O)c1Br	–	1.8	93.6	–	30.7	74	39.5	-6.2	92.3	3460	–
O=C(/C=C/c1c(Cl)c(O)c(O)c(O)c1Cl)c1cccs1	–	-0.9	99.1	–	-1.8	82.8	35.3	76.9	112	216	–
O=C(/C=C/c1c(Cl)c(O)c(O)c(O)c1Cl)c1ccc(Cl)cc1Cl	–	0.6	81	–	0.6	77.2	31.2	87.3	21.8	306	–
O=C(/C=C/c1c(Cl)c(O)c(O)c(O)c1Cl)c1ccc(Cl)cc1	–	0.4	81.2	–	0.4	68.7	27	81.1	22.6	630	–
O=C(/C=C/c1c(Cl)c(O)c(O)c(O)c1Cl)c1ccccc1F	–	3.1	89	–	2.3	84.6	43.7	87.3	72.8	237	–
O=C(/C=C/c1c(Cl)c(O)c(O)c(O)c1Cl)c1c(Cl)cc(Cl)cc1Cl	–	0.7	78.7	–	1.2	58.5	33.3	79	13	404	–
O=C(O)CCc1c(Cl)c(O)c(O)c(O)c1Cl	–	1	130	–	76.4	80.8	20.8	-6.2	89.7	> 5000	–
